{"source": "patent US11918770B2", "about": "“Implants for localized drug delivery and methods of use thereof” (The Regents of the University of California, priority 2014, dated 2024)", "key": {"[1]": {"system": "MCF7 ER-positive breast cancer cells", "assay": "MTS viability/proliferation assay of MCF7 cells", "format": "cell-based", "procedure": "(§1) Each sealed (10 cm) tube was immersed into a 10 cm culture tube containing 5 mL culture media (Dulbecco's Modified Eagle's medium (DMEM)+10% fetal bovine serum (FBS)+penicillin and streptomycin) approximating interstitial tissue surrounding the breast tissue. These tubes were set on a rocker in an incubator at 37° C. for 1, 2, 5, 10, 15, 21 and 30 days. After each time point media was collected and stored at −80° C. for further analysis for western blotting, viability/proliferation assay by MTS (3-(4,5-dimethylthiazol-2-yl)-5-(3-carboxymethoxyphenyl)-2-(4-sulfophenyl)-2H-tetrazolium) and quantitation by liquid chromatography-tandem mass spectrometry (LC-MS/MS). Additional iteration was to perform repeated washes on the same sealed tube and collect the culture medium at days 1, 2, 5, 10, 15, 21, and 30.\n(§2) MCF-7 culture were propagated and seeded in 6 cm dishes at 300,000 cells per dish and allowed to adhere overnight as a monolayer. […] The drug concentrations and biological effects of the drug eluted from specific tubes were evaluated by Mass spectroscopy, Western Blot analysis and antiproliferative methods after exposure for 3 days.\nAt the end of the exposure, medium was replaced by MTS dye diluted (200 μL per well) in culture medium and incubated for up to 2 hours at 37° C. Optical density (490 nm) at the end of the time points (1, 1.5 and 2 hours) was measure and plotted as a ratio of absorbance (day/untreated).\nMedia containing tubing released drug at respective times was then added to cultured MCF7 ER-positive breast cancer cells and grown for 72 hours.\n(§3) The medium was then used to culture MCF7 cells for 72 h, and the cells were assayed for proliferation by MTS assay (Panel A) and harvested for protein and western blotted for ER and PR expression (Panel B)."}, "[2]": {"settings": "distribution coefficient between water and octanol; cited from earlier work"}, "[3]": {"assay": "Drug release from loaded Silastic tubing in culture media (LC-MS/MS)", "format": "physicochemical", "settings": "for drug transfer from Silastic tubing: Silastic tubing depot approach", "procedure": "as §1\n(§4) A validated LC-MS/MS method was used for quantitation of fulvestrant. Sample was prepared by liquid-liquid extraction procedures with n-hexane-isopropanol (90:10, v/v). Extracts were concentrated (using a nitrogen stream at room temperature) and […] with 2 volumes of mobile phase buffer, and injected into a Sciex ultra performance liquid chromatorgraphy (UPLC) coupled with a Sciex API 5000™ triple quadrupole mass spectrometer. Data was acquired and analyzed by Analyst® MS software.\nMedia was harvested semi-weekly (84 hrs)."}, "estrogen receptor (ER)": {"target": "T1, estrogen receptor (ER) (Homo sapiens, UniProt P03372)", "T1 sequence (P03372 1-595)": "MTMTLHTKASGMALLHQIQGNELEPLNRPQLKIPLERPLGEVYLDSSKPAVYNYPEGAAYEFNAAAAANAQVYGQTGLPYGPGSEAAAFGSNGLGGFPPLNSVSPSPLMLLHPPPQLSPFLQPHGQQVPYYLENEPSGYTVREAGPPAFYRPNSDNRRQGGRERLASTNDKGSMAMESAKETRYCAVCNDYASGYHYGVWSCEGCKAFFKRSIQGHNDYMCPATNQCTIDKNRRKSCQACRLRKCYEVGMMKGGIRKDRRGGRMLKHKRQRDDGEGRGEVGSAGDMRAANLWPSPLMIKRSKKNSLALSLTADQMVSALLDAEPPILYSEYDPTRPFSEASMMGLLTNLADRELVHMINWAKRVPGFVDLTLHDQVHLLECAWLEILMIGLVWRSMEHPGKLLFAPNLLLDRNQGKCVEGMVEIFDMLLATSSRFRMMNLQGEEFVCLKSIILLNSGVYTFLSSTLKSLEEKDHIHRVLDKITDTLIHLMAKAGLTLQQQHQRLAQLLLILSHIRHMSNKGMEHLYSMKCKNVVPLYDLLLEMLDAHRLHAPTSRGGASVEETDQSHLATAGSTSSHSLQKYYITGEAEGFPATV", "assay": "Western blot for ER and PR expression in MCF7 cells", "format": "cell-based", "procedure": "as §1, §2, §3"}, "[4]": {"assay": "Drug release from loaded Silastic tubing in saline (LC-MS/MS)", "format": "physicochemical", "procedure": "Every 84 hours the saline was collected and replaced with fresh saline.\nas §4\nEvery 84 hours, saline was collected and replaced with fresh saline. Fulvestrant was quantified in collected saline by liquid chromatography mass spectrometry."}, "[5]": {"settings": "in 10% ethanol, 10% benzyl alcohol, 15% benzyl benzoate, and to 100% with castor oil (Faslodex®); cited from earlier work"}, "[6]": {"assay": "Visual examination of organs for overt pathology in implanted mice", "format": "in vivo, CD-1 female mice", "settings": "Silastic depot with dry fulvestrant implanted subcutaneously, 9 week period", "text": "(§5) Mice were monitored for body weight loss, activity, adequate grooming, and general behavior daily for the first week, followed by alternate days up to […]. Mice were euthanized and blood and organs were collected after 1, 2, 3, 4, 6 and 9 weeks (FIGS. 21 and 22)."}, "[7]": {"assay": "Fulvestrant level in blood and mammary tissue of mice with Silastic implant", "format": "in vivo, CD-1 female mice", "settings": "2 cm RX50 silastic tubing, 0.076 mg/cm dry fulvestrant, adjacent to inguinal mammary fat pad", "procedure": "as §5\nBlood from anaesthetized CD-1 female mice were collected in Vacutainer® tubes coated with K2 ethylenediaminetetraacetic acid (EDTA) via cardiac puncture. Plasma was separated by centrifugation at 6,000×g for 10 minutes and stored at −80° C. […] Harvested tissue was homogenized in saline on ice and then subjected to liquid-liquid phase extraction and evaluated for their levels of fulvestrant by LC-MS/MS as described above.\nAfter the indicated number of weeks the mice were euthanized and tissue was harvested."}, "[8]": {"system": "progesterone receptor (PgR) mRNA", "assay": "Progesterone receptor mRNA by qRT-PCR in MCF7 cells treated with medium containing released E2", "format": "cell-based", "settings": "estradiol released from Silastic tubing into culture medium, MCF7 cells treated 24 hours", "procedure": "The effect of estradiol released from Silastic® tubing loaded with estradiol and placed in culture medium was monitored, using conditions similar to that described in Example 2.\nFIG. 23: Drug (E2) was loaded into 3 independent silastic tubes, dried, and sealed before incubating them in tissue culture medium for the indicated number of days. The tubes were then removed and MCF7 cells were treated with the medium. For the E2 experiment, MCF7 cells were first depleted of E2 by growing for 48 hours in FBS stripped media. Then, after 24 hours of treatment with media containing released E2, cells were harvested and progesterone receptor mRNA was quantified by quantitative real-time (qRT)-polymerase chain reaction (PCR) using TaqMan® probes from Applied Biosystems. As controls, MCF7 cells untreated and treated directly with 10 nM E2 were run."}, "[9]": {"settings": "MCF7 cells treated directly with 100 nM fulvestrant (positive control)"}}, "note": "Entries after “also recorded” stand apart in the source; their conditions may differ.", "data": [{"compound": "C[C@]12CC[C@@H]3c4ccc(O)cc4C[C@@H](CCCCCCCCC[S+]([O-])CCCC(F)(F)C(F)(F)F)[C@H]3[C@@H]1CC[C@@H]2O", "note": "(stereo partly shown) [fulvestrant]", "values": [{"measurement": "cell growth", "setting": "[1]; [9]", "result": "arrest cell growth"}, {"measurement": "tube equilibration time sufficient for growth inhibition and ER down regulation comparable to 100 nM fulvestrant", "setting": "[1]; Silastic tubing 9 cm, 0.076 mg/cm dry fulvestrant, in culture media", "result": "2 to 5", "unit": "days"}, {"measurement": "antiproliferative effects", "setting": "[1]; fulvestrant added directly, concentration curves 10-50 nM and up to 10 μM, 72 hours", "result": "sufficient to block estrogen receptor signaling and proliferation"}, {"measurement": "growth inhibition and estrogen receptor down regulation", "setting": "[1]; medium with fulvestrant released from Silastic tubing (0.076 mg/cm dry fulvestrant), MCF7 cells 72 h", "result": "comparable to cells directly treated with fulvestrant (100 nM); also recorded: sufficient to abrogate ER signaling and reduce cell proliferation"}, {"measurement": "log D", "setting": "[2]", "result": "around 8.47"}, {"measurement": "duration of sustained release into culture medium", "setting": "[3]; fulvestrant loaded Silastic tubing, media harvested semi-weekly (84 hrs), LC-MS/MS", "result": "up to 22 weeks"}, {"measurement": "ER expression", "setting": "estrogen receptor (ER); [9]", "result": "sufficient to down regulate ER expression"}, {"measurement": "duration of consistent weekly fulvestrant release, as measured by ER and PR down regulation", "setting": "estrogen receptor (ER); weekly release from Silastic tubing, cell culture models", "result": "more than 4 weeks"}, {"measurement": "extrapolated duration of release", "setting": "[4]; based on rate of release and amount of fulvestrant in the device", "result": "exceeds 10 years"}, {"measurement": "duration of steady release", "setting": "[4]; saline, 37 C", "result": "exceeding 7 months"}, {"measurement": "rate of fulvestrant released", "setting": "[4]; saline, 37 C, after 5 weeks, average", "result": 7.77, "unit": "ng/cm tubing*day"}, {"measurement": "solubility", "setting": "[5]", "result": "up to 50 mg/mL"}, {"measurement": "overt pathology of organs (color, size, general condition)", "setting": "[6]", "result": "none"}, {"measurement": "fulvestrant in mammary tissue", "setting": "[7]; all mice", "result": "significant fulvestrant was detectable"}, {"measurement": "fulvestrant in blood", "setting": "[7]; weeks 1-9, all but one mouse at week 4", "result": "< 4", "unit": "nM"}]}, {"compound": "O=C(c1ccc(OCCN2CCCCC2)cc1)c1c(-c2ccc(O)cc2)sc2cc(O)ccc12", "note": "[raloxifene]", "values": [{"measurement": "log D", "setting": "[2]", "result": "around 5.406"}, {"measurement": "drug transfer from Silastic tubing", "setting": "[3]", "result": "amenable to drug transfer"}]}, {"compound": "C[C@]12CC[C@@H]3c4ccc(O)cc4CC[C@H]3[C@@H]1CC[C@@H]2O", "note": "[estradiol]", "values": [{"measurement": "duration of sustained increase in progesterone receptor (PgR) mRNA expression", "setting": "[8]", "result": "up to 15 days"}]}, {"compound": "4-hydroxytamoxifen", "values": [{"measurement": "drug transfer from Silastic tubing", "setting": "[3]", "result": "amenable to drug transfer"}]}]}
